Here are results for four molecules from patent US4419364A, “Bronchospasmolytic carbamate derivatives” (priority 1980, dated 1983).

A short description of data set [1]: In vitro test on isolated guinea-pig auricles (chronotropic and inotropic effect). Conditions: guinea pig, isolated auricles; relative values; eserine 1·10^-6 mol/l; read-out: Chronotropic effect on isolated auricle (relative values). Set-up: species or system guinea-pig (Dunkin Hartley, male). As for the experimental part: (§1) Male guinea-pigs strain Dunkin Hartley (400-500 g) were used. After bleeding and removal of the heart the auricles were dissected free from the ventricular part and submerged into carbogen aerated Krebs solution of 37°. The frequency and force of the spontaneously beating preparation was recorded by a Grass transducer FT03. In the polygraph (Grass 7D) the signals from the isometric transducer passed a trigger function from the drive amplifier to the tachograph to record the rate.
(§2) The esterase inhibitor eserine was added to a concentration of 1·10^-6 mol/l in the organ bath before the drugs to be tested were added. The intrinsic activity of the test compounds on the heart preparation, that is their effect on heart rate (chronotropic effect) and their effect on the force of the heart beats (inotropic effect), and their possible interaction with terbutaline was studied.

Data set [2] concerns isolated auricles from guinea-pig heart. The data set is described as above. Set-up: species or system guinea-pig (Dunkin Hartley, male). As for the experimental part:
as §1, §2

A further data set relates to heart rate in dogs. Nature of the data set: In vivo test on the effect on the heart rate in dogs. Set-up: species or system dogs (Beagle, male). The following applies: oral; for Slope of the line of increase in heart rate vs. logarithm of corresponding serum conc.: serum conc. of terbutaline; for Slope of the line of increase in heart rate vs. logarithm of corresponding serum conc. / Correlation coefficient (increase in heart rate vs. logarithm of serum conc.): terbutaline 0.01-0.1 mg/kg, test compound 0.3-3 mg/kg. As for the experimental part: Five dogs (Beagle, .male., 13-18 kg) have been used repeatedly in the study. Each dog was used at most once a week. Food was withheld from the animals the night before the experiment (water ad libitum). The test compound was solved in 8 ml of distilled water, and delivered into the back of the mouth by use of a syringe and a short tube. This oral supply was followed by a water rinse of 8 ml.
The blood was collected from the cephalic veins in the forelegs by use of evacuated tubes. The esterase inhibitor diisopropylfluophosphate (DFP) was added, the samples centrifugated (+5°) and the amount of terbutaline in plasma determined by a massfragmentographic analysis method. The serum level of terbutaline indicates the degree of bronchospasmolytic effect of the test compounds.
The amounts of the test substances to be administered were selected so that the level of terbutaline, when administered per se, corresponds to the serum levels obtained and found effective in patients at clinical use, that is a level of terbutaline of at least 2 ng/ml serum for 6 to 8 hours. The doses of the test substances of the invention were selected so that the serum levels of terbutaline obtained would correspond approximately with the serum levels obtained after administration of terbutaline per se.
The heart rate was determined by a stethoscope (the mean of three determinations during a 5-minute periode) before the administration of drug and before each blood sampling.
The relative effect of the test compounds on the heart rate of the test animals was illustrated by plotting in a diagram the increase in heart rate measured at a certain serum concentration of terbutaline versus the logarithm of the said terbutaline concentration in serum. Only values before and up to the maximal increase in heart rate were used. This method will produce a graph consisting of a substantially straight line. When such a line is drawn from each test compound, it can be seen from the slope of the line how the heart rate is correlated to the serum concentration of the test compound.

Data set [3] in a line: Duration of serum levels of terbutaline after oral administration of test compounds to unanaesthetized dogs. It is filed as in vivo, dogs (Beagle, male). Conditions: for concentration at 1 h: 1 hour after administration; for concentration at 2 h: 2 hours after administration; for concentration at 3 h: 3 hours after administration; for concentration at 4 h: 4 hours after administration; for concentration at 6 h: 6 hours after administration. As to the method: Five dogs (Beagle, .male., 13-18 kg) have been used repeatedly in the study. Each dog was used at most once a week. Food was withheld from the animals the night before the experiment (water ad libitum). The test compound was dissolved in 8 ml of distilled water, and delivered into the back of the mouth by use of a syringe and a short tube. This oral supply was followed by a water rinse of 8 ml.
The blood was collected from the cephalic veins in the forelegs by use of evacuated tubes. The esterase inhibitor diisopropylfluophoshate (DFP) was added, the samples centrifugated (+5°) and the amount of terbutaline in plasma determined by a massfragmentographic analysis method. The serum level of terbutaline indicates the degree of bronchospasmolytic effect of the test compounds.
The amounts of the test substances to be administered were selected so that the level of terbutaline corresponds to the serum levels obtained and found effective in patients at clinical use, that is a level of terbutaline of at least 2 ng/ml serum for 6 to 8 hours. The doses of the test substances of the invention were selected so that the serum levels of terbutaline obtained would correspond approximately with the serum levels obtained after administration of terbutaline per se.
The test results are given in Table 1 below, where the time course of the serum level of terbutaline in the test animals is given. Each set of serum levels is the result of test in one dog. The boxed time interval represents the interval where a clinically effective serum level of terbutaline is obtained. Thus, the boxed interval represents the clinically useful duration of the test compounds.

The subject of data set [4] is histamine-induced bronchospasm in unanaesthetized guinea-pigs. Kind of data set: Protecting effect against histamine-induced bronchospasm after oral administration in guinea-pigs. The following applies: for ED50: Cavia porcellus, 0.05 h, histamine aerosol, read-out: Dose protecting 50% of the test animals for more than 3 minutes (ED50). It is filed as in vivo, guinea-pigs (Dunkin-Hartley, male). As for the experimental part:
Male guinea-pigs, Dunkin-Hartley strain, 150-200 g, were used in the study. The animals were starved for about 15 hours (water ad libitum) before the administration, by a stomach tube, of test compound or vehicle (controls). To establish an adequate time period between administration and histamine exposure, the maximum plasma level of terbutaline produced from the hydrolysis of the given pro-drugs of terbutaline was determined. Thus, blood samples (in pre-experimental series) were collected from guinea-pigs at different times after the administration of the test compound and the plasma level of tarbutaline was determined by a massfragmentographic analysis. A peak in the plasma turbutaline was noted 50-60 minutes after the administration, and this time was selected as time for start of histamine exposure.
The histamine aerosol was generated by Bird inline nebulizers from a solution containing 0.02% histamine-HCl and 3% glycerole. The protecting effect was estimated from the delay in appearance of signs of anoxia in drug-treated animals. […] Drug-treated guinea-pigs without any signs of respiratory influence from the histamine during these first 3 minutes were denoted as protected.

In data set [5] the test system is isolated tracheal muscle from guinea-pig. Kind of data set: In vitro test on isolated guinea-pig trachea (relaxation of pilocarpine-contracted trachea). The following applies: for EC50: Cavia porcellus, pilocarpine-contracted, eserine 1·10^-6 mol/l, read-out: Concentration of test substance producing 50% relaxation of the trachea (EC50). As for the experimental part: The trachea from guinea-pigs was dissected out, cut spirally and transferred to a 10 ml organ bath containing Krebs solution of 37° and aerated with carbogen. The tracheal strip was contracted by pilocarpine (4·10^-6 mol/l) producing a tension of about 1.5 g. Isometric recording was made by use of a transducer FT03 and Grass polygraph 7D. Before the administration of the test compound the esterase inhibitor eserin was added to the bath in a concentration of 1·10^-6 mol/l. The concentration of the test substances which produces 50% relaxation (EC50) of the pilocarpine contracted trachea was recorded as well as potentiating or inhibiting influence of the test substances of the invention on the relaxing effect of terbutaline. In this last mentioned test the muscle preparation was pretreated with the test compounds during 5 minutes, before the response of terbutaline was recorded.

The conditions of data set [6]: cited from earlier work; for Duration of bronchospasmolytic activity, in words: relative to a marketed comparator.
Setting [7] is: dog, serum, po, 0.03 mg/kg, read-out: Serum level of terbutaline.
[8] abbreviates: dog, serum, po, 0.1 mg/kg, read-out: Serum level of terbutaline.

Several values for one entry are separate records, joined by “and”; a condition that tells them apart may be missing. Equal entries are not always repeated. Entries after “also recorded” stand apart in the source; their conditions may differ. Structures can show the parent of a compound that is named as a salt. Where two headings read alike, the source gives them in different places. Bounds are passed on as bounds.

By ED50 is commonly meant the dose that gives a 50% effect, or the effect in half of the subjects. For the molecule `CN(C)C(=O)Oc1cc(OC(=O)N(C)C)cc(C(O)CNC(C)(C)C)c1` (stereo not shown) [I, 1-[bis-(3',5'-N,N-dimethylcarbamoyloxy)phenyl]-2-N-tert.butylaminoethanol hydrochloride], in data set [1], the Emax was found to be 0%. Moreover, the “Chronotropic or inotropic effect, in words” value in data set [2] (isolated guinea-pig auricles) is “did not show any chronotropic or inotropic effect”. For the same molecule, the “Potentiating or inhibiting effect on the chronotropic and inotropic effect of terbutaline” value in data set [2] (test compound in same concentration as terbutaline) is on record as “No potentiating or inhibiting effect”. For the same molecule, in the data set on heart rate in dogs (hydrochloride), the “Increase in heart rate relative to terbutaline, in words” value was “relatively much lower increase in heart rate than the reference compound terbutaline; also recorded: considerably reduced stimulating effect on the heart rate compared with the heart rate stimulating effect of terbutaline”. In addition, in the data set on heart rate in dogs, the “Slope of the line of increase in heart rate vs. logarithm of corresponding serum conc.” value stood at 0.63 and the “Correlation coefficient (increase in heart rate vs. logarithm of serum conc.)” value worked out at 0.9324. The “Duration of terbutaline serum level of 2 ng/ml or more” value in data set [3] (p.o., dogs) is no less than 16 h. In addition, the “Duration of clinically useful serum level relative to terbutaline” value in data set [3] (p.o., dogs, terbutaline 2 ng/ml serum or higher) is “at least twice as long”. Also, in data set [4], the ED50 was 2.7 mg/kg and 6.7 µmol/kg. The “Bronchospasmolytic potency relative to terbutaline” value in data set [4] (on molar basis, in words) is listed as “less potent than the reference substance terbutaline”. Moreover, the “Potentiating or inhibiting effect of the test substance on the bronchodilating effect of terbutaline” value in data set [5] (5 minutes pretreatment, hydrochloride) was “none and No potentiating or inhibiting activity”. Moreover, the EC50 in data set [5] is greater than 20000 nM. The “Bronchodilating effect (intrinsic), in words” value in data set [5] (isolated guinea-pig trachea, hydrochloride) was “did not produce any bronchodilating effect; also recorded: did not exert any intrinsic bronchodilating effect”.
As for `Cc1ccc(C(=O)Oc2ccc(C(O)CNC(C)(C)C)cc2OC(=O)c2ccc(C)cc2)cc1` (stereo not shown) [bitolterol], the “Duration of bronchospasmolytic activity, in words” value in data set [6] is given as “comparable with that of salbutamol”.
For the molecule `CC(C)(C)NCC(O)c1ccc(O)c(CO)c1` (stereo not drawn) [salbutamol, α-(tert.)-butylaminomethyl-4-hydroxy-m-xylene-α-diolsulphate], the “Duration of bronchospasmolytic activity, in words” value in data set [6] is listed as “about equal to the duration of terbutaline”.
On to `CC(C)(C)NCC(O)c1cc(O)cc(O)c1` (stereo not shown) [terbutaline, 1-(3',5'-dihydroxyphenyl)-2-t-butylaminoethanol sulphate], for which, in data set [1], the Emax is 100%. Moreover, the “Inotropic effect on isolated auricle (relative values)” value in data set [2] (relative values, eserine 1·10^-6 mol/l) worked out at 1.0. Moreover, in the data set with heart rate in dogs, the “Slope of the line of increase in heart rate vs. logarithm of corresponding serum conc.” value is listed as 1.04 and the “Correlation coefficient (increase in heart rate vs. logarithm of serum conc.)” value was found to be 0.9598. Further, in data set [3] (setting [7]), the concentration at 1 h is 4.8 ng/mL, the concentration at 2 h worked out at 2.9 ng/mL, the concentration at 3 h worked out at 2.4 ng/mL and the concentration at 4 h worked out at 2.2 ng/mL. The concentration at 6 h in data set [3] (setting [7]) is 1.9 ng/mL. In data set [3] (setting [8]), the concentration at 1 h stood at 5.7 ng/mL, the concentration at 2 h was 13.7 ng/mL, the concentration at 3 h turned out to be 9.2 ng/mL and the concentration at 4 h turned out to be 6.1 ng/mL. In data set [3] (setting [8]), the concentration at 6 h worked out at 3.4 ng/mL. Further, the concentration at 8 h in data set [3] (dog, serum, po, 0.1 mg/kg, 8 hours after administration, read-out: Serum level of terbutaline) is 2.2 ng/mL. Also, the concentration at 12 h in data set [3] (dog, serum, po, 0.1 mg/kg, 12 hours after administration, read-out: Serum level of terbutaline) worked out at 1.1 ng/mL. The concentration at 16 h in data set [3] (dog, serum, po, 0.1 mg/kg, 16 hours after administration, read-out: Serum level of terbutaline) turned out to be 0.8 ng/mL. For the same molecule, the concentration at 24 h in data set [3] (dog, serum, po, 0.1 mg/kg, 24 hours after administration, read-out: Serum level of terbutaline) stood at 0.35 ng/mL. In data set [4], the median effective dose (ED50) is 0.4 mg/kg and 1.5 µmol/kg. The EC50 in data set [5] is 210 ± 50 nM. For the same molecule, the “Serum concentration of terbutaline necessary for desired therapeutic activity” value in data set [6] (Hornblad et al. (1976)) is “at least 2 ng/ml”. Further, the “Duration of terbutaline serum level at clinical use” value in data set [6] (normally obtained at clinical use of terbutaline, 2 ng/ml) is given as “about 8 hours”.
